This note sets out measurements from ChEMBL document CHEMBL1201862, “PubChem BioAssay data set” (2004).

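Each compound was tested at five concentrations against cells in 96-well plates for 48 hours. GI50 marks 50% less growth.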 Activity calls are given as the source filed them. Cut-off read from the data, not from the text of the source: active = GI50 up to about 1.1 µM and inactive = higher.

Test systems include COLO 205; DU-145; HCC 2998; HOP-92; Hs-578T; MOLT-4; NCI-H23; OVCAR-8; PC-3; SF-295; SK-MEL-28; SK-MEL-5; SNB-19; SNB-75; UO-31; A498; HOP-62; NCI-H226; OVCAR-4; U-251.
Assay in all cases: inhibition of tumour cell growth, NCI panel, 48 h

As for `COC(=O)c1c[nH]c(=O)[nH]c1=O` [ISOOROTIC ACID METHYL ESTER], the GI50 in the assay with COLO 205 is > 100 µM (inactive); in the assay on DU-145, > 100 µM (inactive); with HCC 2998, > 100 µM (inactive); in the assay on HOP-92, 30.5 µM (inactive); in the assay on Hs-578T, > 100 µM (inactive); with MOLT-4, > 100 µM (inactive). Also, the GI50 in the assay on NCI-H23, with OVCAR-8, in the assay with PC-3, with SF-295, with SK-MEL-28 and in the assay with SK-MEL-5 was > 100 µM (inactive) in each case. Moreover, the GI50 in the assay on SNB-19, with SNB-75 and with UO-31 was > 100 µM (inactive) each time.
As to `CN1C(=O)[C@@H]2N(CSC2(C)C)C1=S`, the GI50 is > 100 µM (inactive) in the assay with A498; > 100 µM (inactive) in the assay on COLO 205; > 100 µM (inactive) in the assay on DU-145; > 100 µM (inactive) with HCC 2998; > 100 µM (inactive) with HOP-62; 98.6 µM (inactive) in the assay with HOP-92. Also, the GI50 in the assay with MOLT-4, in the assay with NCI-H226, in the assay on NCI-H23, in the assay on OVCAR-4, in the assay on OVCAR-8 and in the assay on PC-3 was > 100 µM (inactive) in each case. Moreover, the GI50 in the assay on SF-295 was > 100 µM (inactive); with SK-MEL-28, > 100 µM (inactive); in the assay with SK-MEL-5 it was 4.47 µM (inactive); in the assay on SNB-19 it was > 100 µM (inactive); in the assay on SNB-75, > 100 µM (inactive); with U-251, > 100 µM (inactive). In the assay with UO-31, the GI50 was > 100 µM (inactive).
On to `Nc1ncnc2c1ncn2C1CC(O)C(CO)O1` (centres undefined), for which the GI50 in the assay with A498, with COLO 205, in the assay on DU-145, with HCC 2998, in the assay on HOP-62 and with HOP-92 was > 100 µM (inactive) in each case. The GI50 with MOLT-4, in the assay on NCI-H226, in the assay with NCI-H23, in the assay on OVCAR-4, in the assay on OVCAR-8 and in the assay with PC-3 was > 100 µM (inactive) each time. In addition, the GI50 with SF-295, in the assay on SK-MEL-28, in the assay on SK-MEL-5, in the assay with SNB-19, with SNB-75 and in the assay with U-251 was > 100 µM (inactive) each time. Also, the GI50 with UO-31 was > 100 µM (inactive).
`COc1cc2c(cc1O)CCN[C@@]21CS[C@H]2c3c(OC(C)=O)c(C)c4c(c3C(COC1=O)N1C2C2c3c(cc(C)c(OC)c3O)CC([C@@H]1O)N2C)OCO4` (some centres undefined): the GI50 with COLO 205 is < 0.0001 µM (active); with DU-145 it was < 0.0001 µM (active); in the assay with HCC 2998 it was 0.0001 µM (active); with HOP-62 it was < 0.0001 µM (active); with HOP-92, < 0.0001 µM (active); in the assay on Hs-578T it was < 0.0001 µM (active). The GI50 in the assay on MOLT-4, with NCI-H226, with NCI-H23, in the assay on OVCAR-4, in the assay on OVCAR-8 and in the assay on PC-3 was < 0.0001 µM (active) throughout. In addition, the GI50 in the assay with SF-295 was < 0.0001 µM (active); in the assay on SK-MEL-28 it was < 0.0001 µM (active); with SK-MEL-5, < 0.0001 µM (active); in the assay with SNB-19 it was < 0.0001 µM (active); with SNB-75 it was 0.00131 µM (active); with U-251, 0.0001 µM (active).
`CC(C)=CCC/C(C)=C/CCC1(C)C2COC(=O)C21` (centres undefined): the GI50 in the assay with A498 is > 100 µM (inactive); with COLO 205, 48.3 µM (inactive); with DU-145, 60.5 µM (inactive); with HCC 2998 it was > 100 µM (inactive); in the assay on HOP-62, > 100 µM (inactive); in the assay on HOP-92 it was 18.2 µM (inactive). Further, the GI50 with MOLT-4 was 30.9 µM (inactive); in the assay with NCI-H226 it was > 100 µM (inactive); in the assay with NCI-H23, 51.3 µM (inactive); with OVCAR-4, 42.8 µM (inactive); in the assay on PC-3, 44.4 µM (inactive); in the assay on SF-295, 77.4 µM (inactive). In addition, the GI50 was 29 µM (inactive) with SK-MEL-28; 20.7 µM (inactive) with SK-MEL-5; 82.8 µM (inactive) with SNB-19; 66.2 µM (inactive) in the assay with U-251; 43.3 µM (inactive) in the assay on UO-31.
Turning to `O=C(CC(C(=O)c1ccco1)c1ccco1)c1ccco1` (centres undefined), the GI50 in the assay on A498, with COLO 205, with DU-145, in the assay with HCC 2998, with HOP-62 and in the assay with HOP-92 was > 100 µM (inactive) each time. Besides, the GI50 was > 100 µM (inactive) in the assay with Hs-578T; > 100 µM (inactive) in the assay on MOLT-4; > 100 µM (inactive) in the assay with NCI-H226; > 100 µM (inactive) in the assay on NCI-H23; 23.8 µM (inactive) in the assay with OVCAR-4; > 100 µM (inactive) in the assay on OVCAR-8. In addition, the GI50 in the assay on SF-295 was > 100 µM (inactive); in the assay with SK-MEL-28 it was > 100 µM (inactive); in the assay on SK-MEL-5, > 100 µM (inactive); in the assay with SNB-75, > 100 µM (inactive); in the assay with U-251 it was > 100 µM (inactive); in the assay on UO-31, 33.1 µM (inactive).
With `NNC(=S)N/N=C(/C(=O)Nc1ccc(Cl)c(Cl)c1)C(C1OC(=O)c2ccccc21)[N+](=O)[O-]` (centres undefined), the GI50 with A498 was > 100 µM (inactive); with HCC 2998, > 100 µM (inactive); in the assay with HOP-62, > 100 µM (inactive); in the assay with HOP-92, 86.9 µM (inactive); in the assay on Hs-578T, > 100 µM (inactive); with MOLT-4 it was > 100 µM (inactive). Also, the GI50 in the assay with NCI-H226, in the assay on NCI-H23, in the assay with OVCAR-4, with OVCAR-8, in the assay with PC-3 and with SF-295 was > 100 µM (inactive) each time. The GI50 with SK-MEL-28, in the assay on SK-MEL-5, in the assay on SNB-75, in the assay with U-251 and with UO-31 was > 100 µM (inactive) in each case.
Turning to `Cc1c(C(=O)O)c2cc3ccccc3cc2c(=O)n1C`, the GI50 with HCC 2998, in the assay with HOP-92, in the assay on Hs-578T, in the assay on NCI-H226, in the assay with NCI-H23 and in the assay with OVCAR-4 was > 10 µM (inactive) each time. Moreover, the GI50 in the assay with OVCAR-8, with PC-3, in the assay with SF-295, in the assay on SNB-19, with SNB-75 and with U-251 was > 10 µM (inactive) each time. Moreover, the GI50 in the assay on UO-31 is > 10 µM (inactive).
As to `NC(Cc1ccccc1)C(=O)OCN1C(=O)C2C3C=CC(C2C1=O)C1C(=O)N(COC(=O)C(N)Cc2ccccc2)C(=O)C31` (centres undefined), the GI50 is 75.9 µM (inactive) with COLO 205; > 100 µM (inactive) with DU-145; > 100 µM (inactive) in the assay with HCC 2998; > 100 µM (inactive) in the assay on HOP-62; > 100 µM (inactive) in the assay on Hs-578T; 22.4 µM (inactive) with MOLT-4. The GI50 in the assay with NCI-H226 was > 100 µM (inactive); in the assay with NCI-H23 it was 66.2 µM (inactive); with OVCAR-8, > 100 µM (inactive); with PC-3 it was > 100 µM (inactive); with SF-295, > 100 µM (inactive); in the assay on SK-MEL-28 it was 67.6 µM (inactive). The GI50 in the assay on SK-MEL-5 was 49.8 µM (inactive); with SNB-19, > 100 µM (inactive); in the assay on U-251 it was > 100 µM (inactive); in the assay with UO-31 it was > 100 µM (inactive).
Consider `COc1cc(COC(=O)N(C)[C@@H](Cc2ccccc2)C(=O)O)c([N+](=O)[O-])cc1OC`, for which the GI50 in the assay with DU-145, in the assay with HCC 2998, with HOP-62, in the assay on HOP-92, in the assay with Hs-578T and in the assay with MOLT-4 was > 100 µM (inactive) in each case. For the same compound, the GI50 in the assay on NCI-H226, with NCI-H23, with OVCAR-8, in the assay with PC-3, in the assay with SF-295 and with SK-MEL-5 was > 100 µM (inactive) in each case. In addition, the GI50 in the assay with SNB-19, with SNB-75, in the assay with U-251 and in the assay on UO-31 was > 100 µM (inactive) in each case.
In the case of `CC1CCOc2ccc(cc2)/C=N\c2ccc(cc2)-c2ccc(cc2)/N=C\c2ccc(cc2)OCC1`, the GI50 with COLO 205, in the assay on DU-145, with HCC 2998, in the assay on HOP-92, with Hs-578T and with MOLT-4 was > 100 µM (inactive) in each case. Besides, the GI50 in the assay on NCI-H226, in the assay on NCI-H23, in the assay with OVCAR-4, in the assay on OVCAR-8, in the assay with PC-3 and in the assay on SF-295 was > 100 µM (inactive) in each case. For the same compound, the GI50 in the assay with SK-MEL-28, with SK-MEL-5, in the assay on U-251 and with UO-31 was > 100 µM (inactive) throughout.
